Source: PMC9613624 (Journal of medicinal chemistry, 2022)
Entries after “also recorded” stand apart in the source; their conditions may differ.

Key:
AKT = experiment: Western blotting of total AKT; type: cell-based; details: PC3 cells, 1 μM, 24 h
[1] = test system: P-AKT (S473), P-PRAS40 (T246), P-S6 (S240/244); experiment: Western blotting of downstream signaling in PC3 cells; type: cell-based; details: 1 μM, 24 h

| Compound | T-AKT protein level / AKT degradation (western blot, in words) (AKT) | downstream signaling inhibition (P-AKT, P-PRAS40, P-S6; western blot, in words) [1] |
| --- | --- | --- |
| Cc1ncsc1-c1ccc(CNC(=O)[C@@H]2C[C@@H](O)CN2C(=O)[C@@H](NC(=O)CNC(=O)CCc2cccc(-c3ccc4nc(-c5cccnc5N)n(-c5ccc(C6(N)CCC6)cc5)c4n3)c2)C(C)(C)C)cc1 [Compound 11, (2S,4R)-1-((S)-2-(2-(3-(3-(3-(4-(1-Aminocyclobutyl)phenyl)-2-(2-aminopyridin-3-yl)-3H-imidazo[4,5-b]pyridin-5-yl)phenyl)propanamido)acetamido)-3,3-dimethylbutanoyl)-4-hydroxy-N-(4-(4-methylthiazol-5-yl)benzyl)pyrrolidine-2-carboxamide] | completely inactive |  |
| Cc1ncsc1-c1ccc(CNC(=O)[C@@H]2C[C@@H](O)CN2C(=O)[C@@H](NC(=O)CCNC(=O)CCc2cccc(-c3ccc4nc(-c5cccnc5N)n(-c5ccc(C6(N)CCC6)cc5)c4n3)c2)C(C)(C)C)cc1 [Compound 12, (2S,4R)-1-((S)-2-(3-(3-(3-(3-(4-(1-Aminocyclobutyl)phenyl)-2-(2-aminopyridin-3-yl)-3H-imidazo[4,5-b]pyridin-5-yl)phenyl)propanamido)propanamido)-3,3-dimethylbutanoyl)-4-hydroxy-N-(4-(4-methylthiazol-5-yl)benzyl)pyrrolidine-2-carboxamide] | completely inactive |  |
| Cc1ncsc1-c1ccc(CNC(=O)[C@@H]2C[C@@H](O)CN2C(=O)[C@@H](NC(=O)CCCCCCCCCCNC(=O)CCc2cccc(-c3ccc4nc(-c5cccnc5N)n(-c5ccc(C6(N)CCC6)cc5)c4n3)c2)C(C)(C)C)cc1 [Compound 20, (2S,4R)-1-((S)-2-(11-(3-(3-(3-(4-(1-Aminocyclobutyl)phenyl)-2-(2-aminopyridin-3-yl)-3H-imidazo[4,5-b]pyridin-5-yl)phenyl)propanamido)undecanamido)-3,3-dimethylbutanoyl)-4-hydroxy-N-(4-(4-methylthiazol-5-yl)benzyl)pyrrolidine-2-carboxamide] | highly effective AKT degraders |  |
| Cc1ncsc1-c1ccc(CNC(=O)[C@@H]2C[C@@H](O)CN2C(=O)[C@@H](NC(=O)COCC(=O)NCCc2cccc(-c3ccc4nc(-c5cccnc5N)n(-c5ccc(C6(N)CCC6)cc5)c4n3)c2)C(C)(C)C)cc1 [Compound 33, (2S,4R)-1-((S)-2-(2-(2-((3-(3-(4-(1-Aminocyclobutyl)phenyl)-2-(2-aminopyridin-3-yl)-3H-imidazo[4,5-b]pyridin-5-yl)phenethyl)amino)-2-oxoethoxy)acetamido)-3,3-dimethylbutanoyl)-4-hydroxy-N-(4-(4-methylthiazol-5-yl)benzyl)pyrrolidine-2-carboxamide] | effectively induced T-AKT degradation |  |
| Cc1ncsc1-c1ccc(CNC(=O)[C@@H]2C[C@@H](O)CN2C(=O)[C@@H](NC(=O)CCOCCC(=O)NCCc2cccc(-c3ccc4nc(-c5cccnc5N)n(-c5ccc(C6(N)CCC6)cc5)c4n3)c2)C(C)(C)C)cc1 [Compound 34, (2S,4R)-1-((S)-2-(3-(3-((3-(3-(4-(1-Aminocyclobutyl)phenyl)-2-(2-aminopyridin-3-yl)-3H-imidazo[4,5-b]pyridin-5-yl)phenethyl)amino)-3-oxopropoxy)propanamido)-3,3-dimethylbutanoyl)-4-hydroxy-N-(4-(4-methylthiazol-5-yl)benzyl)pyrrolidine-2-carboxamide] | effectively induced T-AKT degradation |  |
| Cc1ncsc1-c1ccc(CNC(=O)[C@@H]2C[C@@H](O)CN2C(=O)[C@@H](NC(=O)COCCOCCOCCOCCOCC(=O)NCCc2cccc(-c3ccc4nc(-c5cccnc5N)n(-c5ccc(C6(N)CCC6)cc5)c4n3)c2)C(C)(C)C)cc1 [Compound 40, N^1-(3-(3-(4-(1-Aminocyclobutyl)phenyl)-2-(2-aminopyridin-3-yl)-3H-imidazo[4,5-b]pyridin-5-yl)phenethyl)-N^17-((S)-1-((2S,4R)-4-hydroxy-2-((4-(4-methylthiazol-5-yl)benzyl)carbamoyl)pyrrolidin-1-yl)-3,3-dimethyl-1-oxobutan-2-yl)-3,6,9,12,15-pentaoxaheptadecanediamide] | restored effective AKT degradation activity |  |
| Cc1ncsc1-c1ccc(CNC(=O)[C@@H]2C[C@@H](O)CN2C(=O)[C@@H](NC(=O)CCOCCOCCOCCOCCOCCC(=O)NCCc2cccc(-c3ccc4nc(-c5cccnc5N)n(-c5ccc(C6(N)CCC6)cc5)c4n3)c2)C(C)(C)C)cc1 [Compound 41, N^1-(3-(3-(4-(1-Aminocyclobutyl)phenyl)-2-(2-aminopyridin-3-yl)-3H-imidazo[4,5-b]pyridin-5-yl)phenethyl)-N^19-((S)-1-((2S,4R)-4-hydroxy-2-((4-(4-methylthiazol-5-yl)benzyl)carbamoyl)pyrrolidin-1-yl)-3,3-dimethyl-1-oxobutan-2-yl)-4,7,10,13,16-pentaoxanonadecanediamide] | restored effective AKT degradation activity |  |
| Cc1ncsc1-c1ccc(CNC(=O)[C@@H]2C[C@@H](O)CN2C(=O)[C@@H](NC(=O)CCCCCCCC(=O)NCCc2cccc(-c3ccc4nc(-c5cccnc5N)n(-c5ccc(C6(N)CCC6)cc5)c4n3)c2)C(C)(C)C)cc1 [Compound 47, N^1-(3-(3-(4-(1-Aminocyclobutyl)phenyl)-2-(2-aminopyridin-3-yl)-3H-imidazo[4,5-b]pyridin-5-yl)phenethyl)-N^9-((S)-1-((2S,4R)-4-hydroxy-2-((4-(4-methylthiazol-5-yl)benzyl)carbamoyl)pyrrolidin-1-yl)-3,3-dimethyl-1-oxobutan-2-yl)nonanediamide] | particularly effective in T-AKT degradation | particularly effective |
| Cc1ncsc1-c1ccc(CNC(=O)[C@@H]2C[C@@H](O)CN2C(=O)[C@@H](NC(=O)CCCCCCCCC(=O)NCCc2cccc(-c3ccc4nc(-c5cccnc5N)n(-c5ccc(C6(N)CCC6)cc5)c4n3)c2)C(C)(C)C)cc1 [Compound 48, N^1-(3-(3-(4-(1-Aminocyclobutyl)phenyl)-2-(2-aminopyridin-3-yl)-3H-imidazo[4,5-b]pyridin-5-yl)phenethyl)-N^10-((S)-1-((2S,4R)-4-hydroxy-2-((4-(4-methylthiazol-5-yl)benzyl)carbamoyl)pyrrolidin-1-yl)-3,3-dimethyl-1-oxobutan-2-yl)decanediamide] | particularly effective in T-AKT degradation; also recorded: highly effective AKT degraders | particularly effective |
| Cc1ncsc1-c1ccc(CNC(=O)[C@@H]2C[C@@H](O)CN2C(=O)[C@@H](NC(=O)CCCCCCCCCC(=O)NCCc2cccc(-c3ccc4nc(-c5cccnc5N)n(-c5ccc(C6(N)CCC6)cc5)c4n3)c2)C(C)(C)C)cc1 [Compound 49, N^1-(3-(3-(4-(1-Aminocyclobutyl)phenyl)-2-(2-aminopyridin-3-yl)-3H-imidazo[4,5-b]pyridin-5-yl)phenethyl)-N^11-((S)-1-((2S,4R)-4-hydroxy-2-((4-(4-methylthiazol-5-yl)benzyl)carbamoyl)pyrrolidin-1-yl)-3,3-dimethyl-1-oxobutan-2-yl)undecanediamide] | particularly effective in T-AKT degradation; also recorded: highly effective AKT degraders | particularly effective |
